# Values quoted from earlier work in US20250177296A1, “SLURRY AND SOLUTION COMPOSITIONS” (MIRAKI INNOVATION THINK TANK LLC, priority 2018, published 2025).
# Settings: pretreatment with 2% lidocaine
compound,measurement,value
CCN(CC)CC(=O)Nc1c(C)cccc1C [lidocaine],Effect of pretreatment on pain response associated with hypertonic saline,attenuates pain response
